From patent publication US11564912B2, “Methods for treating irritable bowel syndrome (IBS)” (Salix Pharmaceuticals, Inc., priority 2008, dated 2023)

Tests used:
Type in all cases: in vivo, human
[1] = Rifaximin exposure in subjects having IBS
[2] = test system: subjects with dIBS; test: Study of rifaximin BID in subjects with dIBS: adequate relief of IBS symptoms and bloating; settings: rifaximin 550 mg BID 14 days, patients with dIBS
[3] = test system: subjects with dIBS; test: as above; settings: for Percentage of Subjects with Number of Weeks with Adequate Relief of Bloating Symptoms / Percentage of Subjects with Number of Weeks with Adequate Relief of IBS Symptoms: RFX 550 mg BID, N = 191, ITT
Protocol: This example relates to a study of rifaximin in subjects with dIBS. […] There were two measures of efficacy assessed. Subjects were questioned on the relief of overall IBS symptoms and bloating. […] The analyses defined success as a “yes” response to questions regarding adequate relief.
All subpopulations in the study responded to therapy. Baseline severity was determined using 7-point Lickert scales during screening for Abdominal Pain/Discomfort and Bloating, and the number, type (normal, hard, loose) and urgency of bowel movements.
Duration of effect was assessed in a follow-up period. Subjects that responded in the 4 week treatment period were followed for an additional 3 months.
The effect of treatment on the percentage of subjects who reported adequate relief of IBS and bloating symptoms for at least two of the final three weeks during the treatment phase (Weeks 1 to 4) is shown in Tables 3-5 and FIGS. 4-6 below.
Two measures of efficacy were assessed independently. The first was the proportion of subjects who provided a ‘yes’ response to the weekly SGA question: “In the past 7 days, have you had adequate relief of your IBS symptoms? (yes/no)”. The second endpoint was the proportion of subjects who provide a ‘yes’ response to the weekly individual symptom question: “In the past 7 days, have you had adequate relief of your symptom of bloating? (yes/no)”. Durability was based on the proportion of subjects that had adequate relief over the entire treatment phase.
It is reported herein that the severity of baseline symptoms of abdominal pain and bloating influenced the response to rifaximin treatment. The co-primary endpoints in this analysis assessed weekly yes/no responses to questions regarding adequate relief of global IBS symptoms and IBS-associated bloating. Severity of baseline IBS symptoms was evaluated as a potential confounder of clinical response and was categorized as mild/moderate or severe based on a mean score of ≤4 vs. >4 (on a 7-point scale) for bloating and abdominal pain.
The Weekly yes/no responses to questions regarding adequate relief of global IBS symptoms and IBS-associated bloating were assessed. Clinical response was defined as adequate relief for 2 of the final 3 treatment weeks (wk 2, 3, or 4). Severity of baseline IBS symptoms was evaluated as a potential confounder of clinical response and was categorized as mild/moderate or severe based on a mean score of ≤4 versus >4 (on a 7-point scale (0=not bothersome; 6=very bothersome)) for bloating and abdominal pain.

In the case of “(2S,16Z,18E,20S,21S,22R, 23R,24R,25S,26S,27S,28E)-5,6,21,23,25 Pentahydroxy-27-methoxy -2,4,11,16,20,22,24,26-octamethyl-2,7-(epoxypentadeca-(1,11,13)trienimino)benzofuro (4,5-e) pyrido(1,2,-a) benzimidazole-1,15(2H)-dione,25-acetate [Rifaximin]”, the “Rifaximin exposure, fold lower than neomycin exposure” value [1] is reported as “more than 66 fold”, the “Rifaximin exposure, fold lower than rifampin exposure” value [1] is reported as “more than 520 fold” and the “Tolerability, incidence of adverse events compared with placebo” value [2] is reported as “well tolerated”. The “Percentage of Subjects with Number of Weeks with Adequate Relief of Bloating Symptoms” value (“Percentage of Subjects … of Bloating Symptoms” below) ([3]; 0 weeks) was 35%, the “Percentage of Subjects with Number of Weeks with Adequate Relief of IBS Symptoms” value (shortened to “Percentage of Subjects … of IBS Symptoms”) ([3]; 0 weeks) was 33% and the “Adequate relief of IBS related symptoms (SGA) and IBS-related bloating (IBS-B)” value ([3]; 550 mg BID for 2 weeks) was “statistically significant relief”. The “Percentage of Subjects … of Bloating Symptoms” value ([3]; 1 week) was 14%, the “Percentage of Subjects … of IBS Symptoms” value ([3]; 1 week) was 11% and the “Percentage of Subjects … of Bloating Symptoms” value ([3]; 2 weeks) was 15%. For the same substance, the “Percentage of Subjects … of IBS Symptoms” value ([3]; 2 weeks) was 15%, the “Percentage of Subjects … of Bloating Symptoms” value ([3]; 3 weeks) was 20% and the “Percentage of Subjects … of IBS Symptoms” value ([3]; 3 weeks) was 23%. For the same substance, the “Percentage of Subjects … of Bloating Symptoms” value ([3]; 4 weeks) was 14%, the “Percentage of Subjects … of IBS Symptoms” value ([3]; 4 weeks) was 16% and the “Treatment effect (Bloating)” value ([3]; Age <65) was 6.8%. For the same substance, the “Treatment effect (IBS Sx)” value ([3]; Age <65) was 6.9%, the “Treatment effect (Bloating)” value ([3]; Age ≥65) was 3.2% and the “Treatment effect (IBS Sx)” value ([3]; Age ≥65) was 19.1%. For the same substance, the “Treatment effect (Bloating)” value ([3]; Diabetes History: N) was 7.4%, the “Treatment effect (IBS Sx)” value ([3]; Diabetes History: N) was 9.5% and the “Treatment effect (Bloating)” value ([3]; Diabetes History: Y) was −5.6%. For the same substance, the “Treatment effect (IBS Sx)” value ([3]; Diabetes History: Y) was −12.7%, the “Treatment effect (Bloating)” value ([3]; Disease Duration: 10-20 y) was 11.7% and the “Treatment effect (IBS Sx)” value ([3]; Disease Duration: 10-20 y) was 20.1%. The “Treatment effect (Bloating)” value ([3]; Disease Duration: >20 y) was 35.1%, the “Treatment effect (IBS Sx)” value ([3]; Disease Duration: >20 y) was 46.6% and the “Treatment effect (Bloating)” value ([3]; Disease Duration: ≤10 y) was 2.8%. The “Treatment effect (IBS Sx)” value ([3]; Disease Duration: ≤10 y) was 1.8%, the “Adequate Relief of Bloating at the End of the Treatment Phase: Failure” value (“Adequate Relief of Bloating at the End … Failure” below) ([3]; Female, RFX 275 2 w (N = 95)) was 52 (64.2%) n (%) and the “Adequate Relief of Bloating at the End of the Treatment Phase: Success” value (“Adequate Relief of Bloating at the End … Success” below) ([3]; Female, RFX 275 2 w (N = 95)) was 29 (35.8%) n (%). For the same substance, the “Adequate Relief of IBS Symptoms at the End of the Treatment Phase: Failure” value (shortened to “Adequate Relief of IBS Symptoms … Failure”) ([3]; Female, RFX 275 2 w (N = 95)) was 46 (56.8%) n (%), the “Adequate Relief of IBS Symptoms at the End of the Treatment Phase: Success” value (shortened to “Adequate Relief of IBS Symptoms … Success”) ([3]; Female, RFX 275 2 w (N = 95)) was 35 (43.2%) n (%) and the “Adequate Relief of Bloating at the End … Failure” value ([3]; Female, RFX 550 2 w (N = 99)) was 45 (61.6%) n (%). For the same substance, the “Adequate Relief of Bloating at the End … Success” value ([3]; Female, RFX 550 2 w (N = 99)) was 28 (38.4%) n (%), the “Adequate Relief of IBS Symptoms … Failure” value ([3]; Female, RFX 550 2 w (N = 99)) was 44 (60.3%) n (%) and the “Adequate Relief of IBS Symptoms … Success” value ([3]; Female, RFX 550 2 w (N = 99)) was 29 (39.7%) n (%). For the same substance, the “Adequate Relief of Bloating at the End … Failure” value ([3]; Female, RFX 550 2 w (N = 191)) was 74 (54.0%) n (%), the “Adequate Relief of Bloating at the End … Success” value ([3]; Female, RFX 550 2 w (N = 191)) was 63 (46.0%) n (%) and the “Adequate Relief of IBS Symptoms … Failure” value ([3]; Female, RFX 550 2 w (N = 191)) was 66 (48.2%) n (%). The “Adequate Relief of IBS Symptoms … Success” value ([3]; Female, RFX 550 2 w (N = 191)) was 71 (51.8%) n (%), the “odds ratio, Adequate Relief of Bloating at the End of the Treatment Phase” value ([3]; Female, RFX 550 2 w vs. PBO) was “Comparison of RFX 550 2 w vs. PBO p-value: 0.5366, odds ratio: 1.166 (0.716, 1.898)” and the “odds ratio, Adequate Relief of IBS Symptoms at the End of the Treatment Phase” value ([3]; Female, RFX 550 2 w vs. PBO) was “Comparison of RFX 550 2 w vs. PBO p-value: 0.7608, odds ratio: 1.078 (0.665, 1.747)”. The “Adequate Relief of Bloating at the End … Failure” value ([3]; Female, RFX 550 4 w (N = 98)) was 44 (57.9%) n (%), the “Adequate Relief of Bloating at the End … Success” value ([3]; Female, RFX 550 4 w (N = 98)) was 32 (42.1%) n (%) and the “Adequate Relief of IBS Symptoms … Failure” value ([3]; Female, RFX 550 4 w (N = 98)) was 42 (55.3%) n (%). For the same substance, the “Adequate Relief of IBS Symptoms … Success” value ([3]; Female, RFX 550 4 w (N = 98)) was 34 (44.7%) n (%), the “Treatment effect (Bloating)” value ([3]; Gender: F) was 3.9% and the “Treatment effect (IBS Sx)” value ([3]; Gender: F) was 3.5%. The “Treatment effect (Bloating)” value ([3]; Gender: M) was 13.6%, the “Treatment effect (IBS Sx)” value ([3]; Gender: M) was 21% and the “Adequate Relief of Bloating at the End … Failure” value ([3]; Male, RFX 275 2 w (N = 95)) was 8 (57.1%) n (%). For the same substance, the “Adequate Relief of Bloating at the End … Success” value ([3]; Male, RFX 275 2 w (N = 95)) was 6 (42.9%) n (%), the “Adequate Relief of IBS Symptoms … Failure” value ([3]; Male, RFX 275 2 w (N = 95)) was 9 (64.3%) n (%) and the “Adequate Relief of IBS Symptoms … Success” value ([3]; Male, RFX 275 2 w (N = 95)) was 5 (35.7%) n (%). The “Adequate Relief of Bloating at the End … Failure” value ([3]; Male, RFX 550 2 w (N = 99)) was 16 (61.5%) n (%), the “Adequate Relief of Bloating at the End … Success” value ([3]; Male, RFX 550 2 w (N = 99)) was 10 (38.5%) n (%) and the “Adequate Relief of IBS Symptoms … Failure” value ([3]; Male, RFX 550 2 w (N = 99)) was 14 (53.8%) n (%). The “Adequate Relief of IBS Symptoms … Success” value ([3]; Male, RFX 550 2 w (N = 99)) was 12 (46.2%) n (%) and the “Adequate Relief of Bloating at the End … Failure” value ([3]; Male, RFX 550 2 w (N = 191)) was 29 (53.7%) n (%).
